Consider 26 compounds from US11339120B2, “Phenyl derivatives as cannabinoid receptor 2 agonists” (priority 2015, dated 2022).

Read-outs that look alike come from different tables or passages of the source. Bounds are passed on as bounds.

One experiment addresses T1, human CB1 receptors (Homo sapiens, UniProt P21554).
T1 construct: expressed in transfected cells; host or cells: CHO cells
The experiment in a line: functional cAMP assay, CHO cells expressing human CB1. In kind it is cell-based. As to the method:
(§1) CHO cells expressing human CB1 or CB2 receptors are seeded 17-24 hours prior to the experiment 50.000 cells per well in a black 96 well plate with flat clear bottom (Corning Costar #3904) in DMEM (Invitrogen No. 31331), 1×HT supplement, with 10% fetal calf serum and incubated at 5% CO2 and 37° C. in a humidified incubator. The growth medium was exchanged with Krebs Ringer Bicarbonate buffer with 1 mM IBMX and incubated at 30° C. for 30 min. Compounds were added to a final assay volume of 100 μl and incubated for 30 min at 30° C. Using the cAMP-Nano-TRF detection kit the assay (Roche Diagnostics) was stopped by the addition of 50 μl lysis reagent (Tris, NaCl, 1.5% Triton X100, 2.5% NP40, 10% NaN3) and 50 μl detection solutions (20 μM mAb Alexa700-cAMP 1:1, and 48 μM Ruthenium-2-AHA-cAMP) and shaken for 2 h at room temperature. The time-resolved energy transfer is measured by a TRF reader (Evotec Technologies GmbH), equipped with a ND:YAG laser as excitation source. The plate is measured twice with the excitation at 355 nm and at the emission with a delay of 100 ns and a gate of 100 ns, total exposure time 10 s at 730 (bandwidth 30 nm) or 645 nm (bandwidth 75 nm), respectively. The FRET signal is calculated as follows: FRET=T730-Alexa730-P(T645-B645) with P=Ru730-B730/Ru645-B645, where T730 is the test well measured at 730 nM, T645 is the test well measured at 645 nm, B730 and B645 are the buffer controls at 730 nm and 645 nm, respectively. cAMP content is determined from the function of a standard curve spanning from 10 μM to 0.13 nM cAMP.
(§2) EC50 values were determined using Activity Base analysis (ID Business Solution, Limited). The EC50 values for a wide range of cannabinoid agonists generated from this assay were in agreement with the values published in the scientific literature.

Another experiment has as its target T2, human CB2 receptors (Homo sapiens, UniProt P34972).
T2 construct: expressed in transfected cells; host or cells: CHO cells
The experiment in a line: functional cAMP assay, CHO cells expressing human CB2. In kind it is cell-based. As to the method: as §1, §2

Setting [1] is: functional cAMP assay, CHO cells expressing human CB2, read-out: Human CB2 EC50.

T2 sequence (P34972 whole entry): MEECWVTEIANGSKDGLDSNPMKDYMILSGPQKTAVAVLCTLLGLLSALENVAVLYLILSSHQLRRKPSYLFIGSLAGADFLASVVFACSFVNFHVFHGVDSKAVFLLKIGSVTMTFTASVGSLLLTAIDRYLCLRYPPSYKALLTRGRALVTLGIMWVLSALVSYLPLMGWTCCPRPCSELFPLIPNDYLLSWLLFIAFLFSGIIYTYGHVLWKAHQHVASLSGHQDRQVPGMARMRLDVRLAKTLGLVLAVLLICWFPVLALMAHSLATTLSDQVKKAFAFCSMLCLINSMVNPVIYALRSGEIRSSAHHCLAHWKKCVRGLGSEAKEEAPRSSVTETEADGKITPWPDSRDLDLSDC
T1 sequence (P21554 whole entry): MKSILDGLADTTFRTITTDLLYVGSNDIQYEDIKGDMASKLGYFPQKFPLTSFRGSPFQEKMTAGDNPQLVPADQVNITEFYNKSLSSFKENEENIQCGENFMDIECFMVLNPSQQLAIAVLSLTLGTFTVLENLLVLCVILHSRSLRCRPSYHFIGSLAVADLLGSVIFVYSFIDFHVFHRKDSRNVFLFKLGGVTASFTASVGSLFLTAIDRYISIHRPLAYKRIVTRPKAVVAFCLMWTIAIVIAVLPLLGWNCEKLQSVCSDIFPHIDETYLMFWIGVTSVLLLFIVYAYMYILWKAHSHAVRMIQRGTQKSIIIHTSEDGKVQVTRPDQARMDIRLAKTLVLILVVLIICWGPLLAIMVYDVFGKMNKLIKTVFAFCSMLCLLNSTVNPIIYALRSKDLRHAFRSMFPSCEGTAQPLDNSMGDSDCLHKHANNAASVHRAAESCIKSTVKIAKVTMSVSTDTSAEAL

`CC(C)(C)c1noc(-c2ccc(C3CC3)c(OCC3CC3)c2)n1` [Example 14, 3-tert-Butyl-5-[4-cyclopropyl-3-(cyclopropylmethoxy)phenyl]-1,2,4-oxadiazole]: the 50% effective concentration (EC50) is greater than 10000 nM at human CB1 receptors and 23.3 nM on human CB2 receptors.
The like results for `CC(C)C[C@H](NC(=O)c1ccc(C2CC2)c(OCC2CC2)c1)C(N)=O` [Example 4, N^2-[4-Cyclopropyl-3-(cyclopropylmethoxy)benzoyl]-L-leucinamide] were, in that order, greater than 10000 nM and 18 nM.
In the case of `Cc1nc([C@](C)(CC2CC2)NC(=O)c2ccc(C3CC3)c(-c3ccc(F)nc3)c2)no1` [Example 60, 4-Cyclopropyl-N-[(2S)-1-cyclopropyl-2-(5-methyl-1,2,4-oxadiazol-3-yl)propan-2-yl]-3-(6-fluoropyridin-3-yl)benzamide], the concentration for a half-maximal effect (EC50) on human CB1 receptors was greater than 10000 nM; at human CB2 receptors it was 98.4 nM.
The like results for `Cc1nc([C@](C)(CC2CC2)NC(=O)c2ccc(C3CC3)c(OCCF)c2)no1` [Example 34, (+)-4-Cyclopropyl-N-[1-cyclopropyl-2-(5-methyl-1,2,4-oxadiazol-3-yl)propan-2-yl]-3-(2-fluoroethoxy)benzamide] were, in that order, greater than 10000 nM and 57 nM.
For `CNC(=O)[C@@H](NC(=O)c1ccc(C2CC2)c(-c2ccc(F)nc2)c1)C(C)(C)C` [Example 58, 4-Cyclopropyl-N-[(2S)-3,3-dimethyl-1-(methylamino)-1-oxobutan-2-yl]-3-(6-fluoropyridin-3-yl)benzamide], the EC50 at human CB1 receptors turned out to be 388 nM; at human CB2 receptors, 11.8 nM.
Regarding `NC(=O)[C@@H]1CC(F)(F)CN1C(=O)c1ccc(C2CC2)c(-c2ccc(F)nc2)c1` [Example 57, 1-[4-Cyclopropyl-3-(6-fluoropyridin-3-yl)benzoyl]-4,4-difluoro-L-prolinamide], the EC50 on human CB1 receptors is greater than 10000 nM; on human CB2 receptors (setting [1]) it was 274 nM.
On to `Cc1nc([C@@](C)(CC2CC2)NC(=O)c2ccc(C3CC3)c(OC(C)C)c2)no1` [Example 49, 4-Cyclopropyl-N-[(2R)-1-cyclopropyl-2-(5-methyl-1,2,4-oxadiazol-3-yl)propan-2-yl]-3-[(propan-2-yl)oxy]benzamide], for which the half-maximal effective concentration (EC50) on human CB1 receptors was greater than 10000 nM; on human CB2 receptors it was 42.1 nM.
For the compound `Cc1nc([C@](C)(CC2CC2)NC(=O)c2ccc(C3CC3)c(OCC(F)F)c2)no1` [Example 32, (+)-4-Cyclopropyl-N-[1-cyclopropyl-2-(5-methyl-1,2,4-oxadiazol-3-yl)propan-2-yl]-3-(2,2-difluoroethoxy)benzamide], the EC50 at human CB1 receptors is greater than 10000 nM; at human CB2 receptors, 10.1 nM.
`Cc1nc([C@@](C)(CS(C)(=O)=O)NC(=O)c2ccc(C3CC3)c(OCC(F)(F)F)c2)no1` [Example 29, 4-Cyclopropyl-N-[(2S)-1-(methanesulfonyl)-2-(5-methyl-1,2,4-oxadiazol-3-yl)propan-2-yl]-3-(2,2,2-trifluoroethoxy)benzamide]: the EC50 was greater than 10000 nM at human CB1 receptors and 149 nM at human CB2 receptors.
Taken in the same sequence, the figures for `Cc1nc([C@](C)(CS(C)(=O)=O)NC(=O)c2ccc(C3CC3)c(OCC(F)(F)F)c2)no1` [Example 28, 4-Cyclopropyl-N-[(2R)-1-(methanesulfonyl)-2-(5-methyl-1,2,4-oxadiazol-3-yl)propan-2-yl]-3-(2,2,2-trifluoroethoxy)benzamide] were greater than 10000 nM and 79.9 nM.
The like results for `C[C@](CC(N)=O)(NC(=O)c1ccc(C2CC2)c(N2CCC(F)(F)C2)c1)C1CC1` [Example 61, N-[(2R)-4-Amino-2-cyclopropyl-4-oxobutan-2-yl]-4-cyclopropyl-3-(3,3-difluoropyrrolidin-1-yl)benzamide] were, in that order, 1790 nM and 2.5 nM.
Take `CNC(=O)[C@@H](NC(=O)c1ccc(C2CC2)c(-c2ccnn2C)c1)C(C)(C)C` [Example 56, 4-Cyclopropyl-N-[(2S)-3,3-dimethyl-1-(methylamino)-1-oxobutan-2-yl]-3-(1-methyl-1H-pyrazol-5-yl)benzamide]: the values for the EC50 on human CB1 receptors and on human CB2 receptors (setting [1]) were greater than 10000 nM and 140 nM, respectively.
Taken in the same sequence, the figures for `Cn1nccc1-c1cc(C(=O)N2CC(F)(F)C[C@H]2C(N)=O)ccc1C1CC1` [Example 55, 1-[4-Cyclopropyl-3-(1-methyl-1H-pyrazol-5-yl)benzoyl]-4,4-difluoro-L-prolinamide] were greater than 10000 nM and 1910 nM.
In the case of `CC(C)Oc1cc(C(=O)N2CC(F)(F)C[C@H]2C(N)=O)ccc1C1CC1` [Example 48, 1-{4-Cyclopropyl-3-[(propan-2-yl)oxy]benzoyl}-4,4-difluoro-L-prolinamide], the 50% effective concentration (EC50) at human CB1 receptors was greater than 10000 nM; on human CB2 receptors (setting [1]), 377 nM.
For `CNC(=O)[C@@H](NC(=O)c1ccc(C2CC2)c(OCCF)c1)C(C)(C)C` [Example 39, 4-Cyclopropyl-N-[(2S)-3,3-dimethyl-1-(methylamino)-1-oxobutan-2-yl]-3-(2-fluoroethoxy)benzamide], the EC50 on human CB1 receptors came out at 1560 nM; on human CB2 receptors, 11.5 nM.
Taken in the same sequence, the figures for `Cc1nc([C@](C)(CS(C)(=O)=O)NC(=O)c2ccc(C3CC3)c(OCC3CC3)c2)no1` [Example 21, 4-Cyclopropyl-3-(cyclopropylmethoxy)-N-[(2R)-1-(methanesulfonyl)-2-(5-methyl-1,2,4-oxadiazol-3-yl)propan-2-yl]benzamide] were greater than 10000 nM and 297 nM.
With `Cc1nc([C@@](C)(CC2CC2)NC(=O)c2ccc(C3CC3)c(N3CCC(F)(F)C3)c2)no1` [Example 63, 4-Cyclopropyl-N-[(2R)-1-cyclopropyl-2-(5-methyl-1,2,4-oxadiazol-3-yl)propan-2-yl]-3-(3,3-difluoropyrrolidin-1-yl)benzamide], the values for the EC50 on human CB1 receptors and at human CB2 receptors were 872 nM and 3.83 nM, respectively.
For the compound `CC1(C(CC(N)=O)NC(=O)c2ccc(C3CC3)c(OCC(F)(F)F)c2)COC1` (stereo not shown) [Example 69, N-[3-Amino-1-(3-methyloxetan-3-yl)-3-oxopropyl]-4-cyclopropyl-3-(2,2,2-trifluoroethoxy)benzamide], the concentration giving a half-maximal response (EC50) was greater than 10000 nM on human CB1 receptors and 1180 nM on human CB2 receptors (setting [1]).
On to `CC(C)(C)c1nc(-c2ccc(C3CC3)c(OCC(F)F)c2)no1` [Example 24, 5-tert-Butyl-3-[4-cyclopropyl-3-(2,2-difluoroethoxy)phenyl]-1,2,4-oxadiazole], for which the EC50 at human CB1 receptors was greater than 10000 nM; at human CB2 receptors it was 15.5 nM.
Take `CNC(=O)[C@@H](NC(=O)c1ccc(C2CC2)c(OC(C)C)c1)C(C)(C)C` [Example 37, 4-Cyclopropyl-N-[(2S)-3,3-dimethyl-1-(methylamino)-1-oxobutan-2-yl]-3-[(propan-2-yl)oxy]benzamide]: the EC50 at human CB1 receptors was greater than 10000 nM; on human CB2 receptors it was 5.33 nM.
With `Cc1ccc(C(=O)N[C@@H](CC(C)C)C(N)=O)cc1OCC1CC1` [Example 1, N-[(2S)-1-amino-4-methyl-1-oxopentan-2-yl]-3-(cyclopropylmethoxy)-4-methylbenzamide], the EC50 on human CB1 receptors was greater than 10000 nM; at human CB2 receptors (setting [1]), 136 nM.
`C[C@@](CC(N)=O)(NC(=O)c1ccc(C2CC2)c(OCCF)c1)C1CC1` [Example 54, N-[(2S)-4-Amino-2-cyclopropyl-4-oxobutan-2-yl]-4-cyclopropyl-3-(2-fluoroethoxy)benzamide]: the EC50 at human CB1 receptors was greater than 10000 nM; on human CB2 receptors, 231 nM.
Take `NC(=O)[C@@H]1CC(F)(F)CN1C(=O)c1ccc(C2CC2)c(OCCF)c1` [Example 40, 1-[4-Cyclopropyl-3-(2-fluoroethoxy)benzoyl]-4,4-difluoro-L-prolinamide]: the figures for the 50% effective concentration (EC50) at human CB1 receptors and at human CB2 receptors (setting [1]) were greater than 10000 nM and 216 nM, respectively.
On to `Cc1nc([C@@](C)(CS(C)(=O)=O)NC(=O)c2ccc(C3CC3)c(OCC3CC3)c2)no1` [Example 20, 4-Cyclopropyl-3-(cyclopropylmethoxy)-N-[(2S)-1-(methanesulfonyl)-2-(5-methyl-1,2,4-oxadiazol-3-yl)propan-2-yl]benzamide], for which the EC50 on human CB1 receptors was greater than 10000 nM; on human CB2 receptors, 31.3 nM.
`CC(C)(C)c1noc(-c2ccc(C3CC3)c(N3CCC(F)(F)C3)c2)n1` [Example 47, 3-tert-Butyl-5-[4-cyclopropyl-3-(3,3-difluoropyrrolidin-1-yl)phenyl]-1,2,4-oxadiazole]: the EC50 is greater than 10000 nM at human CB1 receptors and 5.33 nM on human CB2 receptors.
Regarding `Cc1nc([C@](C)(CC2CC2)NC(=O)c2ccc(C3CC3)c(OCC(F)(F)F)c2)no1` [Example 26, (+)-4-Cyclopropyl-N-[1-cyclopropyl-2-(5-methyl-1,2,4-oxadiazol-3-yl)propan-2-yl]-3-(2,2,2-trifluoroethoxy)benzamide], the EC50 was greater than 10000 nM at human CB1 receptors and 36.3 nM on human CB2 receptors.
